Patent US10968462B2, “Plants having increased tolerance to herbicides” (BASF AGRO B.V., priority 2013, dated 2021)

How the values were obtained:
Type in all cases: biochemical, Amaranthus tuberculatum
[1] = target: wild type and amino acid substituted PPO enzyme (PPO2) of SEQ ID NO: 2 (AMARE)
[2] = target: wild type and amino acid substituted PPO enzyme (PPO2) of SEQ ID NO: 2 (AMARE) (Amaranthus tuberculatus, UniProt Q0NZW9, F204I/T208S, form not given)
[3] = target: wild type and amino acid substituted PPO enzyme (PPO2) of SEQ ID NO: 2 (AMARE) (Amaranthus tuberculatus, UniProt Q0NZW9, R128A/L397D, form not given)
[4] = target: wild type and amino acid substituted PPO enzyme (PPO2) of SEQ ID NO: 2 (AMARE) (Amaranthus tuberculatus, UniProt Q0NZW9, F204I/F457M, form not given)
[5] = target: wild type and amino acid substituted PPO enzyme (PPO2) of SEQ ID NO: 2 (AMARE) (Amaranthus tuberculatus, UniProt Q0NZW9, R128L, form not given)

Structure (SMILES)	IC50 [1]	IC50 [2]	IC50 [3]	IC50 [4]	IC50 [5]
C#CCN1C(=O)C(F)(F)Oc2cc(F)c(-n3c(=O)n(C)c(=S)n(C)c3=O)cc21 [1,5-dimethyl-6-thioxo-3-(2,2,7-trifluoro-3-oxo-4-(prop-2-yny] [reference compound]	246 nM	0.129 nM	5.9 nM	0.0752 nM	–
CC(C)N(C)S(=O)(=O)NC(=O)c1cc(-n2c(=O)cc(C(F)(F)F)n(C)c2=O)c(F)cc1Cl [Saflufenacil, saflufenacil]	–	0.0589 nM	–	0.0189 nM	222 nM
